Assay results published in the supplement of paper PMC10307832.

Columns and labels:
Test in all cases: relative viability (nuclei count vs DMSO), 5 days (fraction); higher = more cells survive
[1] = compound: O=C(CCCCCCNC(=O)c1cnc(N(c2ccccc2)c2ccccc2)nc1)NO [Ricolinostat] + CCNC(=O)c1noc(-c2cc(C(C)C)c(O)cc2O)c1-c1ccc(CN2CCOCC2)cc1 [Luminespib] (partner 0.01 µM)
Outline: (§1)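 For relative viability, nuclei counts in treated wells were divided by those in vehicle wells. Lung cancer cell lines had been pin-tool dosed in 1536-well plates the day after seeding and cultured for 5 days, then fixed and stained in one step (final 0.05% Triton X-100, 1% formaldehyde, 1 ug/ml Hoechst) and imaged at 4×. Doses were one drug alone or a fixed anchor-drug dose plus five library-drug doses (not always all listed) in √10 steps, and values are duplicate-plate medians.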

[2] = compound: CC1=CN2C(=O)C=C(N=C2C(=C1)C(C)NC3=CC=CC=C3)N4CCOCC4 [TGX 221] + CCNC(=O)c1noc(-c2cc(C(C)C)c(O)cc2O)c1-c1ccc(CN2CCOCC2)cc1 [Luminespib] (partner 0.01 µM)
Outline: as §1

[3] = compound: C1=CC=C(C(=C1)C2=CC=C(C=C2)C3=CSC4=C3C(=C(C(=O)N4)C#N)O)O + Nc1nc2[nH]cc(CCc3ccc(C(=O)N[C@@H](CCC(=O)O)C(=O)O)cc3)c2c(=O)[nH]1 [Pemetrexed] (partner 0.2 µM)
Outline: as §1

[4] = compound: CC1=CN2C(=O)C=C(N=C2C(=C1)C(C)NC3=CC=CC=C3)N4CCOCC4 [TGX 221] + CC(C)C[C@H](NC(=O)[C@H](Cc1ccccc1)NC(=O)c1cnccn1)B(O)O [Bortezomib] (partner 0.002 µM)
Outline: as §1

EKVX
relative viability ([1]; first compound 0.08 µM): 0.74 | relative viability ([1]; first compound 0.253 µM): 0.783 | relative viability ([1]; first compound 2.53 µM): 0.902 | relative viability ([2]; first compound 0.08 µM): 0.832 | relative viability ([2]; first compound 0.253 µM): 0.724 | relative viability ([2]; first compound 0.8 µM): 0.791 | relative viability ([2]; first compound 2.53 µM): 0.715 | relative viability ([2]; first compound 8 µM): 0.738 | relative viability ([3]; first compound 0.08 µM): 0.425 | relative viability ([3]; first compound 0.253 µM): 0.497 | relative viability ([3]; first compound 0.8 µM): 0.399 | relative viability ([3]; first compound 2.53 µM): 0.465 | relative viability ([3]; first compound 8 µM): 0.336 | relative viability ([4]; first compound 0.08 µM): 1.02 | relative viability ([4]; first compound 0.253 µM): 1.11 | relative viability ([4]; first compound 0.8 µM): 0.939 | relative viability ([4]; first compound 2.53 µM): 0.985 | relative viability ([4]; first compound 8 µM): 0.986

NCI-H322M
relative viability ([1]; first compound 0.253 µM): 0.974 | relative viability ([1]; first compound 0.8 µM): 0.988 | relative viability ([1]; first compound 2.53 µM): 1.09 | relative viability ([2]; first compound 0.08 µM): 0.735 | relative viability ([2]; first compound 0.253 µM): 0.802 | relative viability ([2]; first compound 0.8 µM): 0.776 | relative viability ([2]; first compound 2.53 µM): 0.812 | relative viability ([2]; first compound 8 µM): 0.644 | relative viability ([3]; first compound 0.08 µM): 0.561 | relative viability ([3]; first compound 0.253 µM): 0.574 | relative viability ([3]; first compound 0.8 µM): 0.657 | relative viability ([3]; first compound 2.53 µM): 0.576 | relative viability ([3]; first compound 8 µM): 0.559 | relative viability ([4]; first compound 0.08 µM): 1.15 | relative viability ([4]; first compound 0.253 µM): 1.09 | relative viability ([4]; first compound 0.8 µM): 1.15 | relative viability ([4]; first compound 2.53 µM): 1.18 | relative viability ([4]; first compound 8 µM): 1.11

NCI-H520
relative viability ([1]; first compound 0.253 µM): 0.208 | relative viability ([1]; first compound 0.8 µM): 0.295 | relative viability ([1]; first compound 2.53 µM): 0.233 | relative viability ([2]; first compound 0.08 µM): 0.23 | relative viability ([2]; first compound 0.253 µM): 0.196 | relative viability ([2]; first compound 0.8 µM): 0.188 | relative viability ([2]; first compound 2.53 µM): 0.205 | relative viability ([2]; first compound 8 µM): 0.211 | relative viability ([3]; first compound 0.08 µM): 0.484 | relative viability ([3]; first compound 0.253 µM): 0.676 | relative viability ([3]; first compound 0.8 µM): 0.804 | relative viability ([3]; first compound 2.53 µM): 0.705 | relative viability ([3]; first compound 8 µM): 0.608 | relative viability ([4]; first compound 0.08 µM): 0.345 | relative viability ([4]; first compound 0.253 µM): 0.457 | relative viability ([4]; first compound 0.8 µM): 0.56 | relative viability ([4]; first compound 2.53 µM): 0.263 | relative viability ([4]; first compound 8 µM): 0.309

LC-2-ad
relative viability ([1]; first compound 0.08 µM): 0.8 | relative viability ([1]; first compound 0.253 µM): 0.987 | relative viability ([1]; first compound 0.8 µM): 0.98 | relative viability ([1]; first compound 2.53 µM): 0.869 | relative viability ([2]; first compound 0.08 µM): 0.957 | relative viability ([2]; first compound 0.253 µM): 0.941 | relative viability ([2]; first compound 0.8 µM): 1.18 | relative viability ([2]; first compound 2.53 µM): 1.01 | relative viability ([2]; first compound 8 µM): 0.907 | relative viability ([3]; first compound 0.08 µM): 0.268 | relative viability ([3]; first compound 0.253 µM): 0.288 | relative viability ([3]; first compound 0.8 µM): 0.279 | relative viability ([3]; first compound 2.53 µM): 0.306 | relative viability ([3]; first compound 8 µM): 0.257 | relative viability ([4]; first compound 0.08 µM): 0.978 | relative viability ([4]; first compound 0.8 µM): 1.07 | relative viability ([4]; first compound 2.53 µM): 1.05 | relative viability ([4]; first compound 8 µM): 0.928

NCI-H596
relative viability ([1]; first compound 0.08 µM): 1.12 | relative viability ([1]; first compound 0.253 µM): 0.83 | relative viability ([1]; first compound 0.8 µM): 0.881 | relative viability ([1]; first compound 2.53 µM): 1.1 | relative viability ([2]; first compound 0.08 µM): 0.992 | relative viability ([2]; first compound 0.253 µM): 1.02 | relative viability ([2]; first compound 0.8 µM): 1.04 | relative viability ([2]; first compound 2.53 µM): 0.881 | relative viability ([2]; first compound 8 µM): 0.935 | relative viability ([3]; first compound 0.08 µM): 0.532 | relative viability ([3]; first compound 0.253 µM): 0.545 | relative viability ([3]; first compound 0.8 µM): 0.544 | relative viability ([3]; first compound 2.53 µM): 0.44 | relative viability ([3]; first compound 8 µM): 0.488 | relative viability ([4]; first compound 0.08 µM): 1.17 | relative viability ([4]; first compound 0.253 µM): 1.21 | relative viability ([4]; first compound 0.8 µM): 0.938 | relative viability ([4]; first compound 2.53 µM): 0.871 | relative viability ([4]; first compound 8 µM): 0.948
